Source: patent publication US20070203060A1, “Casein Derived Peptides And Therapeutic Uses Thereof” (priority 2004, published 2007)
Several values for one entry are separate records, joined by “and”; a condition that tells them apart may be missing. Equal entries are not always repeated.

Assays:
[1] = tested on: glucose metabolism in NOD mice; assay: Intraperitoneal Glucose Tolerance Test (IPGTT) in NOD mice; format: in vivo, mouse; details: NOD mice, three injections of 1 mg each, 3 days apart; 25 weeks
Method: Intraperitoneal Glucose Tolerance Test (IPGTT): The glucose tolerance test is the definitive method for investigating glucose metabolism and diabetic tendencies in mammals. Twenty five (25) weeks after receiving Synthetic peptides derived from casein, response to a glucose load was assessed with an intraperitoneal glucose tolerance test. Glucose injection consisted of 1 g/kg body weight. Glycemic values were determined from blood drawn prior to test (0 minutes) and 60 minutes after loading.

[2] = tested on: Juvenile (Type I, IDDM) diabetes in NOD mice; assay: Glucosuria in Non-Obese Diabetic (NOD) mice; format: in vivo, mouse; details: three injections of 1 mg each, 3 days apart, at 25 weeks
Method: Juvenile (Type I, IDDM) diabetes in Non-Obese Diabetic (NOD) mice:
Peptides derived from natural casein: NOD mice are a commonly used model for research of autoimmune disease and human Juvenile Diabetes. Six week old female NOD mice received either one or two injections per week of 100 μg of peptides derived from natural casein, for a total of 5 or 10 treatments. Control mice received no treatment. The severity of disease was determined according to glucosuria, which was measured using Combi test sticks [Gross, D. J. et al. (1994), Diabetology, 37:1195]. Results were expressed as the percent of glucosuria-free mice in each sample over a 365-day period.
Synthetic peptides derived from casein: In another experiment, 6 week old female NOD mice received two injections per week of 100 μg of Synthetic peptides derived from casein for a total of 10 treatments, or three injections of 1 mg each, 3 days apart, for a total of 3 treatments. Control mice received no treatment. Results were expressed as the number of healthy mice in the various treated groups.

[3] = tested on: peripheral white blood cells of myeloablated, bone marrow transplanted mice; assay: Leukocyte reconstitution in irradiated bone marrow transplant recipient mice; format: in vivo, mouse; details: BALB/c, 600 cGy, 1 mg per mouse i.p.
[4] = tested on: murine primary bone marrow cells (CFU-GEMM); assay: Multipotential colonies (CFU-GEMM) from murine bone marrow cells, colony and differential counts; format: cell-based, mouse; details: 8 days treatment
Method: Proliferation of megakaryocytes in multipotential colonies (CFU-GEMM) from murine Bone Marrow cells: Primary bone marrow cells (1×10^5 per ml) from 8-12 week-old C3H/HeJ mice were grown in serum-free methyl cellulose-IMDM medium for 8-9 days at 5% CO2, 95% air, at 37° C. The medium, appropriate for the growth of multipotential colonies (CFU-GEMM), contained 1% BSA (Sigma), 10^−4 M thioglycerol (Sigma), 2.8×10^−4 M human transferrin (TF, Biological industries, Israel), 10% WEHI-CM as a source of IL-3 and 2 units per ml erythropoietin (rhEPO, R & D Systems, Minneapolis). […] They were picked with a micropipette, cytocentrifuged and stained with May-Grunwald-Giemsa for differential counts. At least 700 cells were counted for each preparation. […]

Sequence | blood glucose values in response to a glucose load (IPTG test) [1] | mice in which no glucosuria was detected [2] | peripheral white blood cell count ([3]; day 10) | peripheral white blood cell count ([3]; day 12) | megakaryocyte formation and development (in words) [4]
RPKHPIKHQGLPQEV [C] | 101 and 113 and 102 | 3 out of 5 | 1.72 ×10^6 cells per ml | 6.54 ×10^6 cells per ml | 
RPKHPIKHQGLPQEVLNEN | < 120 | two out of 5 |  |  | significant increase
